Paper PMC4861277, “The KISS1 Receptor as an In Vivo Microenvironment Imaging Biomarker of Multiple Myeloma Bone Disease” (PLoS ONE, 2016)
Ends that are not written are not given here.

Legend:
[1] = tested on: MCF-7 tumor-burdened tibiae; assay: In vivo fluorescence imaging of mice intratibially injected with MCF-7 cells; conditions: CD-1 nude mice, intratibial MCF-7, 100 μl of 40 μM probe, NightOwl imaging for 20 min, plateau values, n = 3, p<0.05 (S2E Fig)
Method: (§1) In vivo binding of Alexa 633-kisspeptin was tested in immune competent BALB/c and CD-1 nude mice, inoculated with MOPC cells and MCF-7 cells, respectively. All experiments were performed according to the German regulations for animal experimentation. The study was approved by the Regierung von Unterfranken as the responsible authority (Permit Number 55.2–2531.01-76/10 and -103/11) and by the institutional authorities of the Ethics Committee for Animal Experiments at the Christian Albrechts University of Kiel (V242-7224.121–17). 1x10^6 MCF-7 cells transfected with the near-infrared fluorescent protein [31] were suspended in 5 μl PBS and injected directly into the right tibia, with equal amounts of PBS injected into contralateral control limbs, of 3 female CD-1 nude mice (Charles River). Tumor progression was monitored using the NightOwl planar imaging system (Berthold Technologies, Bad Wildbad, Germany). […]
(§2) Supplementary file pone.0155087.s002.tif: S2 Fig Alexa 633-kisspeptin binds to the KISS1R-expressing cell line MCF-7 in vitro and in vivo. Cultured MCF-7 cells were incubated with either free dye or dye conjugated to the modified kisspeptin and imaged with fluorescence microscopy (A). […] Tibia fluorescence was quantified over time (D) and plateau fluorescent values determined (E). […]

[2] = tested on: KISS1R-expressing cell line MCF-7; assay: Fluorescence microscopy of probe binding to cultured MCF-7 cells; type: cell-based, human; conditions: S2A Fig
Method: MSCs were seeded in a Nunc^TM Lab-Tek^TM II 4-well chamber slide (6.7x10^3 cells/well) (Thermo Fischer Scientific GmbH, Erlangen, Germany) and allowed to attach overnight. Afterwards, the medium was replaced by 500 μl mixed media, 1:1 (v/v), followed by 24 h incubation. The day after, 500 μl mixed media, 1:1 (v/v) containing 1x10^4 INA-6 cells or 1.5x10^5 MOPC cells, 500 μl MM cell-derived supernatant (conditioned media) or 500 μl mixed media, 1:1 (v/v) (control) was added per well. […] After rinsing three times with PBS, cells were fixed in 4% paraformaldehyde and mounted with Vectashield mounting media for fluorescence containing 4',6-diamidino-2-phenylindole (Vector Laboratories, Inc., purchased from Linaris, Dossenheim, Germany). Images were acquired using a BZ-9000 fluorescence microscope (Cy5 filter) and the softwares BZ-II Viewer and BZ-II Analyzer 2.1 (all from Keyence, Neu-Isenburg, Germany).
as §2

[3] = tested on: MOPC315.BM2-LucGFP MM bone lesions; assay: In vivo time-lapse fluorescence imaging of MM bone lesions (MOPC model); conditions: BALB/c mice with MOPC lesions in one hind leg, 100 μl of 40 μM probe i.v., imaged for 1 h, relative to pre-scan, n = 6, p<0.01 (Fig 5E)
Method: as §1, with “Germany). 1x10^5 MOPC cells, suspended in 100 μl PBS, were injected i.v. via the lateral tail vein into immune-competent female BALB/c mice (Charles River). 19 days after the injection of the MM cells, mice were imaged by in vivo bioluminescence (BLI) to identify 6 mice which contain lesions in only one of the hind legs. All animals were kept in temperature and humidity-controlled, pathogen-free environment, with a 12 h light/dark cycle, and access to food and water ad libitum.” for “Germany).”

primary MSCs (KISS1R) = assay: Fluorescence microscopy of probe binding to primary MSCs (alone, conditioned media, direct co-culture with MM cells); type: cell-based, human; conditions: for binding to primary MSCs under normal culture conditions: MSCs alone, room temperature, fluorescence microscopy (Cy5 filter), Fig 4A; for binding to primary MSCs under normal culture conditions / binding to MSCs and MM cells after direct co-culture: 30 min incubation, 40 μmol/l; for binding to MSCs and MM cells after direct co-culture: MSCs directly co-cultured 24 h with INA-6 or MOPC cells
Method: MSCs were seeded in a Nunc^TM Lab-Tek^TM II 4-well chamber slide (6.7x10^3 cells/well) (Thermo Fischer Scientific GmbH, Erlangen, Germany) and allowed to attach overnight. Afterwards, the medium was replaced by 500 μl mixed media, 1:1 (v/v), followed by 24 h incubation. The day after, 500 μl mixed media, 1:1 (v/v) containing 1x10^4 INA-6 cells or 1.5x10^5 MOPC cells, 500 μl MM cell-derived supernatant (conditioned media) or 500 μl mixed media, 1:1 (v/v) (control) was added per well. For preparation of the conditioned media, INA-6 cells (2x10^5 cells/ml) or MOPC cells (3.75x10^4 cells/ml) were cultured for one day in mixed media, 1:1 (v/v), followed by centrifugation (270 g, 5 min) and filtration of the supernatant (filter pore size: 0.45 μm). After 24 h, cells were incubated for 30 min with either free dye or the Alexa 633-kisspeptin (40 μmol/l) at room temperature. After rinsing three times with PBS, cells were fixed in 4% paraformaldehyde and mounted with Vectashield mounting media for fluorescence containing 4',6-diamidino-2-phenylindole (Vector Laboratories, Inc., purchased from Linaris, Dossenheim, Germany). Images were acquired using a BZ-9000 fluorescence microscope (Cy5 filter) and the softwares BZ-II Viewer and BZ-II Analyzer 2.1 (all from Keyence, Neu-Isenburg, Germany).

[4] = mouse, in vivo, iv
Method: BLI was performed with an IVIS Spectrum (Caliper-Xenogen, Alameda, CA, USA) as previously described [32]. Briefly, mice were anesthetized i.p. with a mixture of ketamine (100 mg/kg) and xylazine (10 mg/kg) in PBS. Luciferin (150 mg/kg) was co-injected and BLI measurements were started 10 min later. For MCF-7 mice, animals were imaged every minute following injection of 100 μl of Alexa 633-kisspeptin (40 μM) using the NightOwl. For MM-containing mice, a fluorescence pre-scan (excitation filter: 605 nm, emission filter: 660 nm; illumination time: 1 s) was performed using the IVIS Spectrum. Next, mice were injected with 100 μl of Alexa 633-kisspeptin (40 μM) in the lateral tail vein and immediately imaged every two minutes for up to 20 min using the fluorescence settings as described above. In addition, fluorescent images were acquired after 30, 45, and 60 min. At the end of the experiment mice were then euthanized, organs were prepared, and fluorescence ex vivo imaging of the organs was performed. Imaging data was analyzed with Living Image 4.0 (Caliper-Xenogen, Alameda, CA, USA) and Prism 5 software (GraphPad, La Jolla, CA, USA).
All statistical analyses were conducted using Prism 5 software. Comparison between groups was made using either a paired or unpaired two-sample t-tests. Comparison of organ fluorescence was conducted using a 1-way ANOVA and Turkey’s multiple comparison test. Alexa 633-kisspeptin binding kinetics were quantified using association then dissociation curves with time0 = 25 min and NS = 1. P values of <0.05 were considered to be statistically significant.

[5] = tested on: matrix metalloproteinase 2; conditions: cited from earlier work
From the text: The data presented herein support KISS1R as a novel and promising new biomarker for myeloma bone disease, but still several questions remain. Firstly, while we have described the up-regulation of the KISS1R cells directly interacting with MM cells, little is known so far about the role of kisspeptin and the KISS1R in MM disease progression. It will be of great importance to understand the role of kisspeptin and the KISS1R in both bone marrow cells and MM, and to be aware of what potential side effects, either positive or negative, may be associated with targeting or activation of this system. ...

[6] = compared with 10, 13 and 14 amino acid isoforms; cited from earlier work

Substance: Alexa 633-kisspeptin: 54 amino acid kisspeptin with an N-terminal cysteine residue, labeled with Alexa Fluor 633 C5 Maleimide (C(Alexa Fluor 633 C5 maleimide)GTSLSPPPESSGSPQQPGLSAPHSRQIPAPQGAVLVQREKDLPNYNWNSFGLRF; ends and bridges not checked)
- fluorescence signal in tumor-burdened tibiae relative to contralateral controls [1]: significantly elevated signals
- binding to MCF-7 cells in vitro [2]: bound
- peak fluorescence in tumor-burdened limbs compared to contralateral sites [3]: Significantly greater peak fluorescence levels
- binding to MSCs cultured in MM cell conditioned media (primary MSCs (KISS1R); MSCs 24 h in INA-6 or MOPC conditioned media, 30 min with 40 μmol/l probe, Fig 4B): low level probe binding
- binding to primary MSCs under normal culture conditions (primary MSCs (KISS1R)): low level, heterogeneous binding
- binding to MSCs and MM cells after direct co-culture (primary MSCs (KISS1R); Fig 4B): at high levels
- organ uptake: kidney fluorescence [4]: significantly high levels of fluorescence
- organ uptake: liver fluorescence [4]: significantly high levels of fluorescence
- organ uptake: ovaries [4]: a notable amount of probe was also detected

Substance: Alexa Fluor 633 C5 Maleimide [free dye, reference compound]
- binding to primary MSCs under normal culture conditions (primary MSCs (KISS1R)): no notable fluorescence
- binding to MSCs and MM cells after direct co-culture (primary MSCs (KISS1R); Fig 4B): failed to show any specific binding

Substance: kisspeptin
- cleavage by matrix metalloproteinase 2 [5]: cleaved and inactivated
- stability of the 54 amino acid form relative to the shorter isoforms [6]: higher stability
